The text below walks through data of patent publication US4812456A, “1-(N-(2-alkylthio-10H-phenothiazin-10-yl)alkyl)-4-benzoylpiperidines and pharmaceutical use” (Hoechst-Roussel Pharmaceuticals Inc., priority 1987, dated 1989).

Assay [1] concerns mice. The assay is described as follows: climbing mice assay (apomorphine climbing, antipsychotic activity). It is filed as in vivo, CK-1 male mice. The note with it: Mus musculus, ip, compound 30 minutes prior to apomorphine 1.5 mg/kg subcutaneously, climbing scores at 10, 20 and 30 minutes, linear regression, read-out: Anti-Psychotic Activity (ED50). The text has this:
The subject CK-1 male mice (23-27 grams) are group-housed under standard laboratory conditions. The mice are individually placed in wire mesh stick cages (4"×4" by 10") and are allowed one hour for adaptation and exploration of the new environment.
Mice consistently climbing before the injection of apomorphine are discarded.
With full-developed apomorphine climbing, the animals are hanging onto the cage walls, rather motionless, over longer periods of time. By contrast, climbs due to mere motor stimulation usually last only a few seconds.

Assay [2] relates to mice. The assay is described as follows: phenyl-p-quinone writhing assay in mice (analgesic activity, modified). Conditions: Mus musculus, sc, tested at peak time, estimated dose at which 50% inhibition of writhing is produced, computer linear regression. It is filed as in vivo, male mice (Charles River, CD-1). How it is done:
The procedure employed to determine analgesic utility is a modification of the phenyl-p-quinone writhing assay in mice, a standard assay for analgesia (Proc. Soc. Exptl. Bio. Med., 95 729 (1957)]. In the modified procedure phenyl-p-benzoquinone (Eastman, 12.5 mg) is dissolved in 5 ml of 95% ethanol and the solution is diluted to a total volume of 100 ml with distilled water. The solution is administered to the subject mice […] at a dose of 10 ml per kg of body weight. A characteristic "writh", an inward rotation of one or more feet with twisting and turning of the trunk, drawing in of the abdominal wall, lordosis and arching of the back, is produced.
A total of 28 male mice (Charles River, CD-1), weighing 18 to 30 grams, are employed for a time response. The subject animals receive food and water ad libitum. Test compounds are dissolved in distilled water, or suspended in distilled water containing one drop of a suitable surfactant, such as Tween-80.
Four groups of five animals (20 animals) are given the test compound subcutaneously at 15, 30, 45 and 60 minutes prior to administration of the phenyl-p-quinone. Four control groups of 2 animals (8 animals) receive an equal volume of the vehicle. […] The number of writhes for each animal is recorded. […]

With `CSc1ccc2c(c1)N(CCCN1CCC(C(=O)c3ccc(F)cc3)CC1)c1ccccc1S2.O=C(O)/C=C/C(=O)O` [4-(4-Fluorobenzoyl)-1-[3-(2-methylthio-10H-phenothiazin-10-yl)propyl]piperidine fumarate], the ED50 in assay [1] was 1.4 mg/kg; in assay [2], 6.1 mg/kg. On to `CSc1ccc2c(c1)N(CCC1CCCCN1C)c1ccccc1S2` (stereo not shown) [Thioridazine], for which, in assay [1], the 50% effective dose (ED50) was 4.1 mg/kg. For the compound `CC(C)=CCN1CCC2(C)c3cc(O)ccc3CC1C2C` (stereo not shown) [Pentazocine], the ED50 in assay [2] was 1.3 mg/kg.

The ED50 is the midpoint of the dose-response relation.
